Data on 21 molecules can be found in patent US7348318B2, “α-Amino-N-(diaminophosphinyl)lactam derivatives” (priority 2002, dated 2008).

Counter-ions that a name gives are not always drawn.

In one data set the target is T1, dipeptidyl peptidase IV (Rattus norvegicus, UniProt P14740).
T1 construct: partially purified from rat kidney homogenate by ammonium sulfate fractionation; from tissue; host or cells: rat kidney
Nature of the data set: biochemical. The settings on record: glycyl·prolyl·β-naphthylamide, pH 7.2, 37° C., 1 hour, read-out: Dipeptidyl peptidase IV 50% inhibition activity value (converted).

Data set [1] deals with ICR strain male mice (Crj:CD-1). Nature of the data set: Test for evaluating efficacy in drug-induced leukopenia (cyclophosphamide). The settings on record: for number of leukocytes: cyclophosphamide 200 mg/kg i.p. Day 0. It counts as in vivo. How it is done:
The efficacy of the compound of Example 1 in drug-induced leukopenia was evaluated according to the method of Okabe et al. (Yakuri to Chiryo (Pharmacology and Treatment), Vol. 19, No. 6, p. 55, 1991).
ICR strain male mice (Crj:CD-1) aged 8 weeks were used in the test. The animals were divided into three groups of 3 or 4 animals each. On Day 0, cyclophosphamide was intraperitoneally administered once to all the groups in a dose of 200 mg/kg. From the next day, the following were intravenously and repeatedly administered to the groups, respectively, for 5 days (Days 1 to 5); a first group (a control group): physiological saline, a second group: the compound of Example 1 (30 mg/kg/day), and a third group: the compound of Example 1 (100 mg/kg/day). Blood was drawn from the orbital vein on Day 0 (before the administration of cyclophosphamide) and Days 2, 4, 6, 8 and 10, and the number of leukocytes was periodically measured to investigate the leukocyte-increasing effect of the compound of Example 1 on leukopenia induced by cyclophosphamide.

The test system is the same in data set [2]. Nature of the data set: Test for investigating the increase of leukocytes and the decrease of platelets in normal mice. It counts as in vivo. The settings on record: for Number of platelets / number of leukocytes: blood drawn day after last administration. Here is the method: ICR strain male mice (Crj:CD-1) aged 8 weeks were used in the test. The animals were divided into 5 groups of 3 to 4 animals each. The following were intravenously and repeatedly administered to the groups, respectively, for 5 days; a first group: physiological saline as solvent, a second group: the compound of Example 45 (hydrochloride of the compound of Example 1) (10 mg/kg/day), a third group: the compound of Example 45 (50 mg/kg/day), a fourth group: the compound of Example 45 (250 mg/kg/day), and a fifth group: sulphostin (WO 99/25719 and JP-A-2000-327689; (3S, PR)-3-amino-1-amino(sulfoamino)phosphinyl-2-piperidone) (50 mg/kg/day). On the day subsequent to the last day in the administration period, blood was drawn from the abdominal aorta under anesthesia and the number of leukocytes and the number of platelets were measured.

The mark [3] stands for this setting: normal mice, 10 mg/kg/day i.v. for 5 days.
Where [4] appears, read: normal mice, 50 mg/kg/day i.v. for 5 days.
Setting [5] is: normal mice, 250 mg/kg/day i.v. for 5 days.

T1 sequence (P14740 whole entry): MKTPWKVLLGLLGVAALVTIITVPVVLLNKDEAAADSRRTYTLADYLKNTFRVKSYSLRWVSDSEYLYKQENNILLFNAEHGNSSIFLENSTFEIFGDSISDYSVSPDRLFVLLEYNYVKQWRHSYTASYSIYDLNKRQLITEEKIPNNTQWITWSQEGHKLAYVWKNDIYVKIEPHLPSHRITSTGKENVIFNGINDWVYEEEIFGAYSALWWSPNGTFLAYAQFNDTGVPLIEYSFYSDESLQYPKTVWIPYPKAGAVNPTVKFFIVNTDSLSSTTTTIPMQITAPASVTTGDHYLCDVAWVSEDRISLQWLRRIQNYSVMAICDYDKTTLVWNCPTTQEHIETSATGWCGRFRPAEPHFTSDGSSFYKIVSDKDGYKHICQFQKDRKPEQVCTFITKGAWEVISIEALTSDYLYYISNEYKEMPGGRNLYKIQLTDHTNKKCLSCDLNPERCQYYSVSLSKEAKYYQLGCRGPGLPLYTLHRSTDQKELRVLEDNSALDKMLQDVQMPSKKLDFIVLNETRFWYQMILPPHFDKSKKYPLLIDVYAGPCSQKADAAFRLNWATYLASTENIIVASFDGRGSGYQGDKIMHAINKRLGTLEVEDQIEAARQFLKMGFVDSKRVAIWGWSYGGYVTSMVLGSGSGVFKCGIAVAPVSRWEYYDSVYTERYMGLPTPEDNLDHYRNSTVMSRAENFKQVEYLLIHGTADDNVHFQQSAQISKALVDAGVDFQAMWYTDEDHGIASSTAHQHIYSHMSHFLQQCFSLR

In the case of `N[C@H]1CCCN(P(N)(=O)NC(=O)COc2ccccc2)C1=O` (mixture of isomers) [Example 57, (3S, P (SR))-3-amino-1-amino(phenoxyacetylamino)phosphinyl-2-piperidone], the IC50 at dipeptidyl peptidase IV is 187 nM.
On to `N[C@H]1CCCN(P(N)(N)=O)C1=O` [Example 1, (3S)-3-amino-1-diaminophosphinyl-2-piperidone], for which the number of leukocytes in data set [1] (30 mg/kg/day i.v. Days 1 to 5, Day 0 (before cyclophosphamide)) is listed as 33 ± 7.8 ×100/millimeter cube; in data set [1] (30 mg/kg/day i.v. Days 1 to 5, Day 2) it was 23 ± 14.2 ×100/millimeter cube; in data set [1] (30 mg/kg/day i.v. Days 1 to 5, Day 4), 7 ± 1.8 ×100/millimeter cube; in data set [1] (30 mg/kg/day i.v. Days 1 to 5, Day 6), 25 ± 6.2 ×100/millimeter cube; in data set [1] (30 mg/kg/day i.v. Days 1 to 5, Day 8) it was 108 ± 52.8 ×100/millimeter cube; in data set [1] (30 mg/kg/day i.v. Days 1 to 5, Day 10), 58 ± 16.1 ×100/millimeter cube. Further, the number of leukocytes is on record as 81 ± 38.7 ×100/millimeter cube in data set [1] (100 mg/kg/day i.v. Days 1 to 5, Day 0 (before cyclophosphamide)); 25 ± 8.3 ×100/millimeter cube in data set [1] (100 mg/kg/day i.v. Days 1 to 5, Day 2); 13 ± 6.8 ×100/millimeter cube in data set [1] (100 mg/kg/day i.v. Days 1 to 5, Day 4); 124 ± 144.2 ×100/millimeter cube in data set [1] (100 mg/kg/day i.v. Days 1 to 5, Day 6); 139 ± 36.7 ×100/millimeter cube in data set [1] (100 mg/kg/day i.v. Days 1 to 5, Day 8); 49 ± 7.3 ×100/millimeter cube in data set [1] (100 mg/kg/day i.v. Days 1 to 5, Day 10). Further, the “number of leukocytes relative to Day 0” value amounted to 100% in data set [1] (30 mg/kg/day, Day 0); 70% in data set [1] (30 mg/kg/day, Day 2); 21% in data set [1] (30 mg/kg/day, Day 4); 76% in data set [1] (30 mg/kg/day, Day 6); 327% in data set [1] (30 mg/kg/day, Day 8); 176% in data set [1] (30 mg/kg/day, Day 10). For the same molecule, the “number of leukocytes relative to Day 0” value came to 100% in data set [1] (100 mg/kg/day, Day 0); 31% in data set [1] (100 mg/kg/day, Day 2); 16% in data set [1] (100 mg/kg/day, Day 4); 153% in data set [1] (100 mg/kg/day, Day 6); 172% in data set [1] (100 mg/kg/day, Day 8); 60% in data set [1] (100 mg/kg/day, Day 10). The “effect in increasing the number of leukocytes (in words)” value in data set [1] (data on Day 8) is listed as “very effective in increasing the number of leukocytes”. Besides, in data set [1] (groups treated with 30 and 100 mg/kg/day, control group requires 8 days), the “recovery of the number of leukocytes to the initial value after the administration of cyclophosphamide” value is 6 days. Further, the IC50 at dipeptidyl peptidase IV is 88.5 nM.
With `CN[C@H]1CCCN(P(N)(N)=O)C1=O` [Example 22, (3S)-3-methylamino-1-diaminophosphinyl-2-piperidone], the IC50 at dipeptidyl peptidase IV is 1410 nM.
As to `N[C@H]1CCCN(P(N)(=O)Nc2ccccc2)C1=O` (single isomer, unassigned) [Example 17, (3S, P (R or S))-3-amino-1-amino(phenylamino)phosphinyl-2-piperidone], the IC50 at dipeptidyl peptidase IV is 5590 nM.
On to `CCCC(=O)NP(N)(=O)N1CCC[C@H](N)C1=O` (mixture of isomers) [Example 51, (3S, P (SR))-3-amino-1-amino(n-butanoylamino)phosphinyl-2-piperidone], for which the IC50 at dipeptidyl peptidase IV is 1140 nM.
The same measure, in the same setting: the value for `NP(N)(=O)N1CCC[C@H](NCc2ccco2)C1=O` [Example 37, (3S)-3-furfurylamino-1-diaminophosphinyl-2-piperidone] was 7710 nM; that for `N[C@H]1CCCN(P(N)(=O)NC(=O)C2CCCCC2)C1=O` (mixture of isomers) [Example 55, (3S, P (SR))-3-amino-1-amino(cyclohexanecarbonylamino)phosphinyl-2-piperidone] was 1590 nM.
On to `CCCNP(N)(=O)N1CCC[C@H](N)C1=O` (mixture of isomers) [Example 15, (3S, P (RS))-3-amino-1-amino(n-propylamino)phosphinyl-2-piperidone], for which the IC50 at dipeptidyl peptidase IV is 7260 nM.
Take `Cl.N[C@H]1CCCN(P(N)(N)=O)C1=O` [Example 45, (3S)-3-amino-1-diaminophosphinyl-2-piperidone hydrochloride]: the “factor by which the number of leukocytes is larger than that of the control group” value in data set [2] (10 mg/kg/day group) was found to be 4.2; in data set [2] (50 mg/kg/day group), 3.8; in data set [2] (250 mg/kg/day group) it was 6.7. In addition, the Number of platelets is given as 76.0 ± 7.8 ×10000/millimeter cube in data set [2] (setting [3]), 84.9 ± 8.3 ×10000/millimeter cube in data set [2] (setting [4]) and 81.1 ± 8.0 ×10000/millimeter cube in data set [2] (setting [5]). Further, the number of leukocytes in data set [2] (setting [3]) was 25 ± 13 ×100/millimeter cube; in data set [2] (setting [4]) it was 23 ± 19 ×100/millimeter cube; in data set [2] (setting [5]) it was 40 ± 18 ×100/millimeter cube. In data set [2] (normal mice, all the groups (10, 50, 250 mg/kg/day)), the “influence on the number of platelets (in words)” value is reported as “did not decrease the number of platelets”.
`NP(N)(=O)N1CCC[C@H](NCc2ccccc2)C1=O` [Example 34, (3S)-3-benzylamino-1-diaminophosphinyl-2-piperidone]: at dipeptidyl peptidase IV, the IC50 is 3900 nM.
On to `CCCCN[C@H]1CCCN(P(N)(N)=O)C1=O` [Example 31, (3S)-3-n-butylamino-1-diaminophosphinyl-2-piperidone], for which the IC50 at dipeptidyl peptidase IV was 3750 nM.
Consider `N[C@H]1CCCN(P(=O)(Nc2ccccc2)Nc2ccccc2)C1=O` [Example 11, (3S)-3-amino-1-bis(phenylamino)phosphinyl-2-piperidone], for which the IC50 at dipeptidyl peptidase IV is 43600 nM.
For `N[C@@H]1CCCN(P(N)(N)=O)C1=O` [Example 42, (3R)-3-amino-1-diaminophosphinyl-2-piperidone], the IC50 on dipeptidyl peptidase IV is 48.4 nM.
On the same count and under the same terms, with `COc1ccc(C(=O)NP(N)(=O)N2CCC[C@H](N)C2=O)cc1` (mixture of isomers) [Example 61, (3S, P (SR))-3-amino-1-amino(4-methoxybenzoylamino)phosphinyl-2-piperidone] the figure was 1070 nM.
On to `CC(C)N[C@H]1CCCN(P(N)(N)=O)C1=O` [Example 28, (3S)-3-isopropylamino-1-diaminophosphinyl-2-piperidone], for which the IC50 at dipeptidyl peptidase IV is 17900 nM.
As for `CC(=O)NP(N)(=O)N1CCC[C@H](N)C1=O` (single isomer, unassigned) [Example 48, (3S, P (R or S))-3-amino-1-amino(acetylamino)phosphinyl-2-piperidone ½ fumarate], the IC50 on dipeptidyl peptidase IV is 1620 nM.
On the same count and under the same terms, with `N[C@H]1CCCN(P(N)(=O)NC(=O)c2ccccc2)C1=O` (mixture of isomers) [Example 39, (3S, P (RS))-3-amino-1-amino(benzoylamino)phosphinyl-2-piperidone] the figure was 2400 nM; with `N[C@H]1CCCN(P(N)(=O)NC(=O)CCc2ccccc2)C1=O` (mixture of isomers) [Example 59, (3S, P (SR))-3-amino-1-amino(3-phenylpropanoylamino)phosphinyl-2-piperidone], 894 nM; with `N[C@H]1CCCCN(P(N)(N)=O)C1=O` [Example 43, (3S)-3-amino-1-diaminophosphinyl-2-perhydroazepinone], 107 nM.
On the same count and under the same terms, with `CC(C)(C)CC(=O)NP(N)(=O)N1CCC[C@H](N)C1=O` (mixture of isomers) [Example 53, (3S, P (SR))-3-amino-1-amino(t-butylacetylamino)phosphinyl-2-piperidone] the figure was 1480 nM; with `CCCN[C@H]1CCCN(P(N)(N)=O)C1=O` [Example 25, (3S)-3-n-propylamino-1-diaminophosphinyl-2-piperidone], 3670 nM.
